Assay results: patent publication US20200239530A1, “COMPOUNDS AND METHODS OF MODULATING PROTEIN DEGRADATION” (Vividion Therapeutics, Inc., priority 2017, published 2020)
Where two headings read alike, the source gives them in different places.

How the values were obtained:
Assay in all cases: Cysteine liganding, probe competition
Assay type in all cases: binding
UniProt Q7Z3V4 = target: T1, UniProt Q7Z3V4 (Homo sapiens, UniProt Q7Z3V4)
T1 construct: 200 μL of lysate containing 5 mg/ml proteome was treated with 2 μL of 100× compound stock; endogenous in cells
T1 sequence (Q7Z3V4 1-1068): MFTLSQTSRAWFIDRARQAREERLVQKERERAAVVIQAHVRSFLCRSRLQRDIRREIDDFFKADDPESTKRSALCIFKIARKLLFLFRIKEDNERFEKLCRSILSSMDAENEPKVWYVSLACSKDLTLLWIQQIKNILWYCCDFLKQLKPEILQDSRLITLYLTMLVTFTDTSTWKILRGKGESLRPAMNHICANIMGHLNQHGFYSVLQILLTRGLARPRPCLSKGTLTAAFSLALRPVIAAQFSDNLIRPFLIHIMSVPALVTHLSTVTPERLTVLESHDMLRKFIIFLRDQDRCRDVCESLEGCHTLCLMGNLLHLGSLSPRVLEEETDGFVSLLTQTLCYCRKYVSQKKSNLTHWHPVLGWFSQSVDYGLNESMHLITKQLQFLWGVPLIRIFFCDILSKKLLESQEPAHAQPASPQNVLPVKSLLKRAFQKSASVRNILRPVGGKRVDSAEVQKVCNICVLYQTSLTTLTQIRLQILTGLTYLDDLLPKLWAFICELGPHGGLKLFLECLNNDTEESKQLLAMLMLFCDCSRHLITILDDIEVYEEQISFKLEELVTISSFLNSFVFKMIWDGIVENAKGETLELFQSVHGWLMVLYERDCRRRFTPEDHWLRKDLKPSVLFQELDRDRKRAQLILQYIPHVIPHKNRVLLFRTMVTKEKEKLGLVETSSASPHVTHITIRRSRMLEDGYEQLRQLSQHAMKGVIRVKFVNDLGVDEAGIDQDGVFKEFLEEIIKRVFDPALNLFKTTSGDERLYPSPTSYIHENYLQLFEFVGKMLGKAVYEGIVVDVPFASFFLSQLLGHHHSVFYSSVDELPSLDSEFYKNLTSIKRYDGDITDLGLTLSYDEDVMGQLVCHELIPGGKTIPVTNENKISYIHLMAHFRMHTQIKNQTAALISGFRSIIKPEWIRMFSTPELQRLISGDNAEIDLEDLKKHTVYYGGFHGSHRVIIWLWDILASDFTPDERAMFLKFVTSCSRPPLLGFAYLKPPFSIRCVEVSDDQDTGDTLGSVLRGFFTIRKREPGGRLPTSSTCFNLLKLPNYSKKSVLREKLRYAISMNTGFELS
Source text: (§1) The following 96-well sample prep protocol was used for sample preparation.

UniProt Q8TE49 = target: T2, UniProt Q8TE49 (Homo sapiens, UniProt Q8TE49)
T2 construct: Cells were resuspended in cold PBS on ice and sonicated with a probe sonicator to achieve lysis; endogenous in cells
T2 sequence (Q8TE49 1-926): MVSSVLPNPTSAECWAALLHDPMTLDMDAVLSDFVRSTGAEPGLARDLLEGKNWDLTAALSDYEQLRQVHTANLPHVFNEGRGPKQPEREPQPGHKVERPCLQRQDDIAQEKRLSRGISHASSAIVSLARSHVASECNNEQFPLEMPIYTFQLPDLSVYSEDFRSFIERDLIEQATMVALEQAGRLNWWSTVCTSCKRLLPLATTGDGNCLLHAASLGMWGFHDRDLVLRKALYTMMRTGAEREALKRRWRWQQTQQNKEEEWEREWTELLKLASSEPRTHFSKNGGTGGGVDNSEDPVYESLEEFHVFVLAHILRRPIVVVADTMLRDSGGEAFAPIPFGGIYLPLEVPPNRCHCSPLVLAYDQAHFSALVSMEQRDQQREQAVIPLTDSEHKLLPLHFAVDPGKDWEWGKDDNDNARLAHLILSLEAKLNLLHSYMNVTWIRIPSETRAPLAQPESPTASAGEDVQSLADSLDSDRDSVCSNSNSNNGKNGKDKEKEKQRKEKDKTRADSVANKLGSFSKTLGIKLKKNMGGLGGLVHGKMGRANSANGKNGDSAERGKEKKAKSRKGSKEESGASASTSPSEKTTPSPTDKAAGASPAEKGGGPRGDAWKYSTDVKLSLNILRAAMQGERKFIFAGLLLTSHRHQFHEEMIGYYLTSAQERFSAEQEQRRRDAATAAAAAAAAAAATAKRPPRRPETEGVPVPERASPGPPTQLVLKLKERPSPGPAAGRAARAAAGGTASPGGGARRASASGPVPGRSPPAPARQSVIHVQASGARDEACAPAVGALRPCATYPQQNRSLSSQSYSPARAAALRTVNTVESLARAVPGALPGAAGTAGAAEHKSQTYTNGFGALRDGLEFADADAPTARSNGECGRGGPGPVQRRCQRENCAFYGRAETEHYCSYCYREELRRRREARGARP
Source text: as §1

UniProt Q9Y252 = target: T3, UniProt Q9Y252 (Homo sapiens, UniProt Q9Y252); settings: for inhibition at 500 µM: read-out: percent_inhibition
T3 construct: 200 μL of lysate containing 5 mg/ml proteome was treated with 2 μL of 100× compound stock; endogenous in cells
T3 sequence (Q9Y252 1-685): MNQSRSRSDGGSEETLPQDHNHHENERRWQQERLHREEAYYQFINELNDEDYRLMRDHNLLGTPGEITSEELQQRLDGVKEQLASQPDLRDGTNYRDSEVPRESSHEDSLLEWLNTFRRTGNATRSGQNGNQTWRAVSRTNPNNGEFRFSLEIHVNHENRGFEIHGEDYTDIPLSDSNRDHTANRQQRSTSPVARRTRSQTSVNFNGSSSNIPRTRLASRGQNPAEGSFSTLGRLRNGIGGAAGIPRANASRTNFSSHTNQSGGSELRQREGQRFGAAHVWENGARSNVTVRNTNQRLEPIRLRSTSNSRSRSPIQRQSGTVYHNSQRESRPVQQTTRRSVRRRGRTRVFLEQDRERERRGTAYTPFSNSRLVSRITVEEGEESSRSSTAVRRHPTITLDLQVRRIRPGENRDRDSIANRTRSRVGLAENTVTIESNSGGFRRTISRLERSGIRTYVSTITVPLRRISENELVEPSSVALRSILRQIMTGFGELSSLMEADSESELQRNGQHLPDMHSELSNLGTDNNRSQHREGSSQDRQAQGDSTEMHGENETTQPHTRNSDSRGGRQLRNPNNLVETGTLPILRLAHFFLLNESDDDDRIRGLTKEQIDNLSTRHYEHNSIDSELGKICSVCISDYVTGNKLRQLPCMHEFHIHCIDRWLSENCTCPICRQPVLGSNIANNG
Source text: as §1

[1] = 500 uM, read-out: KB02_500 uM_percent_inhibition
[2] = 500 uM, read-out: KB05_500 uM_percent_inhibition

Row | Compound | inhibition at 100 µM (UniProt Q7Z3V4; 100 uM, read-out: KB02_100 uM_percent_inhibition) [%] | inhibition at 500 µM (UniProt Q7Z3V4; [1]) [%] | inhibition at 500 µM (UniProt Q8TE49; [1]) [%] | inhibition at 500 µM (UniProt Q9Y252) [%] | inhibition at 100 µM (UniProt Q7Z3V4; 100 uM, read-out: KB05_100 uM_percent_inhibition) [%] | inhibition at 500 µM (UniProt Q7Z3V4; [2]) [%] | inhibition at 500 µM (UniProt Q8TE49; [2]) [%] | KB03_100 uM_percent_inhibition (UniProt Q7Z3V4; 100 uM) [%] | KB03_500 uM_percent_inhibition (UniProt Q7Z3V4; 500 uM) [%] | KB03_100 uM_percent_inhibition (UniProt Q8TE49; 100 uM) [%] | KB03_500 uM_percent_inhibition (UniProt Q8TE49; 500 uM) [%] | percent_inhibition (UniProt Q9Y252; 500 uM) [%]
1 | COc1ccc2c(c1)CCCN2C(=O)CCl [KB02] | 42 | 86 | 28 | 38 | – | – | – | – | – | – | – | –
2 | C=CC(=O)N(c1ccccc1)c1ccc(Br)cc1 [KB05] | – | – | – | 51 | 8 | 64 | 23 | – | – | – | – | –
3 | O=C(CCl)Nc1cc(C(F)(F)F)cc(C(F)(F)F)c1 [KBO3] | – | – | – | – | – | – | – | 33 | 56 | 52 | 56 | 9
